“Also recorded” adds a separate entry of the source.
Molecular target: T1, eGFP-MBP-IN-WT (HIV-1 integrase fusion protein) (Human immunodeficiency virus type 1 group M subtype B, UniProt P04585)
T1 construct: as well as integrase wild type (eGFP-MBP-IN-WT) DNA plasmid; expressed in transfected cells; host or cells: HEK 293T cells; plasmid from Dr. Mark A. Muesing (Rockefeller University)
Assay: cellular integrase screening assay (C-terminal domain of HIV-1 IN nuclear import inhibition)
Format: cell-based
Settings: HEK 293T cells transfected with eGFP-MBP-IN-WT plasmid; compounds at 10, 3.3, 1.1 and 0.33 μM, 0.1% DMSO; fluorescence microscopy
Protocol: In assessing suitability of a compound according to any of the formulas herein, an integrase screening assay can be conducted. In the present case, an exemplary such assay is a cellular integrase assay. A cellular integrase assay can be performed in a 24 well plate. The assay is designed to test compounds in 3-fold serial dilutions (10, 3.3, 1.1 and 0.33 μM) with 0.1% DMSO. Negative and positive control included eGFP-MBP-IN-R262/3/6A, eGFP-MBP-IN-K236/240 and eGFP-MBP-IN-WT respectively supplemented with 0.1% DMSO. Refinement of the assay for optimal results is feasible. For example, refinement herein yields the following protocol. HEK 293T cells (˜0.4*10̂5 cells/ml) are seeded and incubated at 37° C. (5% CO2) for ˜3 days on Poly-L-lysine treated glass coverslips until 80-90% confluent (˜3.2*10̂5 cells/ml). […] Images may be prepared using an Olympus 1X51 fluorescence microscope equipped with a camera by way of example. […]
As an integrase screening assay, a cellular integrase assay was performed in a 24 well plate. […] Slides were visualized and images, of at least 2 fields per glass disk, were taken with an Olympus 1X51 fluorescence microscope equipped with a camera. […]

N-(3-ethoxy propyl)-1-[2-(5-methyl-1H-indol-3-yl)ethyl]-5-oxopyrrolidine [compound 209]
localization phenotype of eGFP-MBP-IN-WT fusion protein (inhibition of nuclear import of IN): nuclear exclusion of the fusion protein; also recorded: exhibited inhibition against HIV to prevent nuclear import of the HIV integrase; also recorded: inhibition of nuclear import of IN

Source: patent US20160347739A1, “5-OXOPYRROLIDINE DERIVATIVES AS HIV INTEGRASE INHIBITORS” (priority 2014, published 2016)
